For assay [1], the system named is vascular endothelial growth factor (VEGF) expression in human dermal papilla cells. Particulars: cited from earlier work.
In assay [2] the test system is VEGF gene expression in human dermal papilla cells. Nature of the assay: Evaluation of human dermal papilla cell VEGF gene expression (real-time PCR). The format is cell-based. Particulars: 72 hours. As for the experimental part: Exemplary Test 1: Evaluation of Human Dermal Papilla Cell VEGF Gene Expression
The VEGF gene is expressed in dermal papilla cells, and contributes to expression of such effects as increase in hair shaft diameter and improving maximum hair shaft length and improving hair shaft elongation rate and hair shaft growth promotion at head hair, beard, eyebrows, and/or eyelashes. Human dermal papilla cells were therefore used, and evaluation was carried out with respect to increase in VEGF gene expression for the respective components.
Human dermal papilla cells (Catalog No. CA60205a; derived from person; Toyobo Co., Ltd. (Japan)) were purchased, testing and evaluation being carried out with maintenance and culture of cells being performed as described in the protocol. […]
A 24-well plate was seeded with human dermal papilla cells so as to obtain 6×10^3 thereof per well. […] The GAPDH gene was used as an internal standard, the amount of VEGF gene expression being calculated relative to the negative control group. […]

SMILES strings stand for the structures.

Consider `Nc1ncnc2c1ncn2[C@@H]1O[C@H](CO)[C@@H](O)[C@H]1O` [adenosine], for which, in assay [1], the “expression of vascular endothelial growth factor (VEGF)” value was “promotes expression of vascular endothelial growth factor (VEGF)”. Turning to `CCCCCCCCCCCCCC[C@@H](O)[C@@H](O)[C@@H](N)CO` [phytosphingosine], the “amount of expression of the VEGF gene compared with Comparative Example 1” value in assay [2] (increased amount of phytosphingosine vs Comparative Example 1, FIG. 1) is “significantly greater”. As to `CCCCCCCCCCCCCC[C@@H](O)[C@@H](O)[C@@H](N)CO` [Working Example 1, phytosphingosine], the “change in amount of expression of the VEGF gene as compared with the control group” value in assay [2] (vs control group at which nothing had been added, GAPDH internal standard, FIG. 1) was “increase in dosage-dependent fashion in the amount of expression of the VEGF gene”.

Values taken from patent US20240285500A1, “HAIR GROWTH AGENT” (ADJUVANT HOLDINGS CO., LTD., priority 2021, published 2024).
